{"source": "patent US11701360B2", "about": "“Composition for inducing differentiation and protection of neural stem cells and method for inducing neuro-regeneration using the same composition” (GENUV Inc., priority 2017, dated 2023)", "key": {"[1]": {"test_system": "Aβ(1-40) and Aβ(1-42)", "assay": "ELISA of Aβ(1-40) and Aβ(1-42) in brain hemispheres, 5XFAD mouse", "type": "in vivo", "settings": "orally daily for 28 days; vs vehicle"}, "[2]": {"test_system": "5XFAD mouse", "assay": "Tuj1 staining in the somatosensory cortex, 5XFAD mouse", "type": "in vivo", "description": "Anti-Tuj1 antibodies were added to the brain tissue slides of 5XFAD mouse in Example 8 and incubated at 4° C. for 1 day, after which the tissue slides were fluorescently stained by incubating with Fluorescein isothiocyanate (FITC)-secondary antibodies (Invitrogen, cat #. A21121) at room temperature for 1 hour. In FIG. 15, the areas marked with arrows (→) indicate cells stained with Tuj1 and the areas marked with arrowheads (▾) indicate plaques formed by amyloid-beta aggregation. Plaques were present in both vehicle-treated and trametinib-treated groups."}, "[3]": {"test_system": "5XFAD mouse", "assay": "Tuj1 and calbindin staining of cerebellar Purkinje cells, 5XFAD mouse", "type": "in vivo", "settings": "particularly 0.1 mg/kg; vs vehicle", "text": "Two slides for Tuj1 staining and three for calbindin staining are shown for each treatment group."}, "[4]": {"test_system": "mouse embryonic neural stem cells", "assay": "Immunocytochemistry analysis (Tuj1/DAPI staining)", "type": "cell-based", "settings": "10 nM; 4 days", "description": "Tuj1 (Neuron specific class III beta-tubulin) is a neuron specific marker protein, which was conjugated to rhodamine to show fluorescent red, while DAPI binds to the cell DNA and stains the cell nuclei fluorescent blue. […] The medium was removed and the cells were washed with PBS. After fixing with 10% formaldehyde (Sigma cat #. HT501128) at room temperature for 10 minutes, they were washed again with PBS. They were permeabilized with 0.2% Triton X-100 (Sigma, cat #. 93443) at room temperature for 15 minutes, washed with PBS, and incubated with 10% BSA (Sigma, cat #. A2153)+1% normal goat serum (Vector lab, Burlingame, Calif., cat #. S1000) at room temperature for 1 hour. […] The solution was removed, washed with PBS, and incubated at room temperature for 1 hour with the secondary antibody (rhodamine-conjugated antibody) diluted in 1% BSA+1% normal goat serum at a ratio of 1:200. Then, the cells were washed with PBS, incubated with 5 μg/ml DAPI (Sigma, cat #. D9542) for 5 minutes, washed with PBS again, and mounted on a slide glass for analysis with a fluorescent microscope."}, "[5]": {"test_system": "mouse adult neural stem cells", "assay": "qRT-PCR of neuronal marker mRNA expression in mouse adult NSC", "type": "cell-based", "settings": "10 nM; 2 days"}, "[6]": {"test_system": "5XFAD mouse", "assay": "TUNEL assay of apoptosis in brain slices, 5XFAD mouse", "type": "in vivo", "settings": "orally daily for 28 days; vs vehicle", "description": "The TUNEL assay stains the 3′-hydroxyl terminus of fragmented DNA, allowing the detection of cells undergoing apoptosis in the tissue.\nSpecifically, the brain tissue slides were permeabilized with 20 μg/ml proteinase K solution for 10 minutes, incubated with equilibration buffer for 10 minutes, and then incubated with TdT solution at 37° C. for 1 hour."}, "[7]": {"test_system": "mouse embryonic neural stem cells", "assay": "Morphology analysis (phase-contrast) of NSC differentiation in mouse embryonic neural stem cells", "type": "cell-based", "settings": "4 days of culture", "description": "Neural stem cells were isolated from the brain of a day 14.5 mouse embryo, treated with 10 ng/ml human basic fibroblast growth factor (bFGF) (Peprotech, Princeton, NG, cat #0.100-18B) and 20 ng/ml human epidermal growth factor (EGF) (Peprotech, cat #. AF-100-15) in a N2 culture medium, and cultured in suspension in a 25 cm2 flask (Nunc, Pittsburgh, Pa.) for 4 days. Formation of neurospheres was observed after 2 days.\nIn order to isolate single cells, 6-well plates were prepared the day before by treating the wells with 15 μg/ml poly-L-ornithine (Sigma, St. Louis, Mo., cat #.P2533) solution and incubating overnight at 37° C. for coating. The day of the single cell isolation, poly-L-ornithine solution was removed, the plates were washed with PBS three times, and 10 μg/ml fibronectin (Gibco, Waltham, Mass., cat #. 33016015) solution was added and incubated at 37° C. for 2 hours for coating.\nVarious concentrations of the compound of [Formula 1]\nFIG. 10b is the analysis of Tuj1 mRNA expression in the cells of each group."}, "[8]": {"test_system": "mouse embryonic neural stem cells", "assay": "qRT-PCR of neuronal marker mRNA expression in mouse embryonic NSC", "type": "cell-based", "description": "Isopropanol (Ducsan, GyunggiDo, Korea, cat #. 67-63-0) was added and mixed for RNA isolation, then centrifuged again to remove the supernatant and obtain the pellet. The RNA pellet was resuspended in 75% ethanol (Ducsan, cat #. 64-17-15), centrifuged, and the supernatant removed. The pellet was then resuspended in sterilized triple distilled water to obtain the mRNA, incubated for 10 minutes at 55° C., and stored at −80° C.\nSterilized triple distilled water, 1 pM oligo dT, and 1 mM dNTP were added to the RNA and incubated for 5 minutes at 65° C. This was followed by the addition of 5× First-strand buffer, 10 mM DTT, and M-MLV reverse transcriptase and incubated at 42° C. for 1 hour, then at 72° C. for 15 minutes, and at 4° C. for 30 minutes. The synthesized cDNA was stored at −20° C.\nThe term relative mRNA expression level signifies that in order to normalize each group's total RNA level, the mRNA expression level of each differentiation marker is divided by the expression level of GAPDH whose expression level is fairly constant across cells, and then the values of each test material are compared with those of the controls (undifferentiated NSC) in each group."}, "[9]": {"test_system": "5XFAD mouse", "assay": "NeuN immunohistochemical staining of brain slices, 5XFAD AD model mouse", "type": "in vivo", "settings": "orally daily for 28 days; vs vehicle", "procedure": "The mouse was then anesthetized and perfused with PBS for the extraction of the brain. […] The other half of the hemispheres plus another 3 extracted mice brains per group were placed in 10% formalin solution at 4° C. for 1 day, which was then followed with the proceeding steps to allow good penetration of paraffin into the brain tissue. The brain tissues were immersed sequentially in 70%, 80%, 95%, 100% alcohol for 1 hour each for dehydration, then immersed in xylene 3 times for 1 hour each for clearing, and embedded in paraffin by placing in liquid paraffin 2 times for 1 hour each. After these procedures, the paraffin-embedded brain tissue (paraffin block) was cut into 5 μm sections, mounted on slides, and stored at room temperature. […]\nFIG. 13b indicates the number of NeuN stained cells counted and represented as the percentage of the number of cells per unit area in the motor cortex layer 5 region. Area samples were taken from 6 areas per mouse, 3 mice per group, so the number of cells counted was from a total of 18 areas.\nFIG. 14b indicates the number of NeuN stained cells counted and represented as the percentage of the number of cells per unit area in the dotted area of the hippocampal subiculum shown in FIG. 14a. Area samples were taken from 3 areas per mouse, 3 mice per group, so the number of cells counted was from a total of 9 areas."}, "[10]": {"test_system": "5XFAD mouse", "assay": "Nissl, NeuN and DCX staining in the hippocampal dentate gyrus, 5XFAD mouse", "type": "in vivo", "settings": "orally daily for 28 days", "description": "After placing in 0.1% cresyl violet (Sigma, cat #. C5042) solution at room temperature for 15 minutes, they were dehydrated by sequentially immersing in 80%, 90%, 100% alcohol, and xylene. Coverslips were put on the slides and the neurons examined.\nNeuN staining was performed by the same method as described in Example 8 as was DCX staining, but using anti-DCX antibodies (Santa Cruz, cat #. sc271390) instead of anti-NeuN antibodies."}, "[11]": {"test_system": "pERK", "assay": "Western blotting of pERK in brain hemispheres, 5XFAD mouse", "type": "in vivo", "settings": "0.1 mg/kg and 1.0 mg/kg PO; vs vehicle"}, "[12]": {"test_system": "MEK 1, MEK2", "settings": "cited from earlier work"}, "[13]": {"test_system": "mouse adult neural stem cells", "settings": "10 nM and 100 nM; regardless of 10 μM amyloid-beta; 4 days", "description": "NSC were isolated from the subventricular zone of week 8 mouse brain, treated with 20 ng/ml human basic fibroblast growth factor (bFGF) and 20 ng/ml human epidermal growth factor (EGF) in an IPM medium, and cultured as a suspension in 24-well plates for 7 days.\nTwo days before the isolation of single cells, 6-well plates were prepared by treating the wells with 10 μg/ml poly-L-ornithine solution and incubating overnight at room temperature for coating. The next day, poly-L-ornithine solution was removed and the plates were washed 3 times with sterilized triple distilled water. […] The culture solution used is N2 culture medium (supplemented with 20 ng/ml bFGF and 20 ng/ml EGF). Right before seeding, the coating solution was suctioned out, and the single cells were uniformly seeded into the culture plate before the plate dried up. Cells were allowed to attach to the plates for about one minute, and after checking that cells were sufficiently attached, an additional 1.5 ml of culture medium (N2 culture medium with 20 ng/ml bFGF and 20 ng/ml EGF) was added to the cells and cultured in a 37° C. incubator for 24 hours.\nWells not treated with amyloid-beta were left to use as negative controls.\nGibco's (Waltham, Mass.) human Aβ (1-42) was purchased to use for the amyloid-beta (Aβ), and the following process was followed to create oligomers. […] Then, it was dried for 10 minutes in a speed Vac, after which DMSO (Sigma, cat #.D2650) was added to bring the concentration to 5 mM and then lightly vortexed at room temperature for 10 minutes. […] The solution was incubated at 4° C. for 24 hours and then added into the cultured cells.\nThe NCSs were cultured with the daily addition of EGF, bFGF, amyloid-beta, and test materials for 4 days."}, "[14]": {"test_system": "5XFAD mouse", "assay": "BrdU staining in the hippocampal dentate gyrus, 5XFAD mouse", "settings": "orally daily for 28 days; vs vehicle", "procedure": "For the BrdU staining to be performed later, 50 mg/kg of BrdU (Sigma, cat #. B5002) was added to the daily dose for the last 5 days. The mouse was then anesthetized and perfused with PBS for the extraction of the brain. […] The other half of the hemispheres plus another 3 extracted mice brains per group were placed in 10% formalin solution at 4° C. for 1 day, which was then followed with the proceeding steps to allow good penetration of paraffin into the brain tissue. The brain tissues were immersed sequentially in 70%, 80%, 95%, 100% alcohol for 1 hour each for dehydration, then immersed in xylene 3 times for 1 hour each for clearing, and embedded in paraffin by placing in liquid paraffin 2 times for 1 hour each. After these procedures, the paraffin-embedded brain tissue (paraffin block) was cut into 5 μm sections, mounted on slides, and stored at room temperature. Prior to immunohistochemical staining, the tissues on the slides were rehydrated by sequentially immersing in xylene, 100%, 90%, 80%, 70%, 50% alcohol, and then water for 5 minutes each. […] The next day, the slides were incubated with anti-rabbit antibodies (Vector lab, cat #. PI-1000) at room temperature for 1 hour and then stained with DAB staining for the analysis of the neuronal distribution in the brain."}, "[15]": {"settings": "1 nM, 10 nM, 25 nM, 100 nM, 2 days"}}, "data": [{"smiles": "CC(=O)Nc1cccc(-n2c(=O)n(C3CC3)c(=O)c3c(Nc4ccc(I)cc4F)n(C)c(=O)c(C)c32)c1", "note": "[trametinib, N-(3-{3-cyclopropyl-5-[(2-fluoro-4-iodophenyl)amino]-6,8-dimethyl-2,4,7-trioxo-3,4,6,7-tetrahydropyrido[4,3-d]pyrimidin-1(2H)-yl}phenyl)acetamide]", "values": [{"measurement": "amount of Aβ(1-42)/Aβ(1-40) in brain", "setting": "[1]", "value": "decreased"}, {"measurement": "lowest dose showing neural stem cell differentiation-inducing activity", "setting": "[2]", "value": 0.1, "unit": "mg/kg/day"}, {"measurement": "axon structure of cerebellar Purkinje cells", "setting": "[3]", "value": "increased axon arborization or at least with preserved axon structure"}, {"measurement": "neuron differentiation (Tuj1 staining)", "setting": "[4]", "value": "increasingly active differentiation activity"}, {"measurement": "mRNA expression of cholinergic neuron marker ChAT", "setting": "[5]", "value": "increased"}, {"measurement": "mRNA expression of dopaminergic neuron marker TH", "setting": "[5]", "value": "increased"}, {"measurement": "mRNA expression of neuronal marker Tuj1", "setting": "[5]", "value": "increased"}, {"measurement": "number of TUNEL stained cells in somatosensory cortex and subiculum", "setting": "[6]", "value": "significantly lower"}, {"measurement": "differentiation of NSC into neurons (morphology)", "setting": "[7]; 10 nM, 25 nM and 100 nM", "value": "readily induced the differentiation of NSC into neurons"}, {"measurement": "concentration at which differentiation of NSC into neurons is seen", "setting": "[7]", "value": "≥ 10", "unit": "nM"}, {"measurement": "mRNA expression of GABAergic neuron marker Gad1", "setting": "[8]; [15]", "value": "increased with the increase in concentration"}, {"measurement": "mRNA expression of cholinergic neuron marker ChAT", "setting": "[8]; [15]", "value": "increased with the increase in concentration"}, {"measurement": "mRNA expression of dopaminergic neuron marker TH", "setting": "[8]; [15]", "value": "increased with the increase in concentration"}, {"measurement": "mRNA expression of motor neuron marker Isl1", "setting": "[8]; [15]", "value": "increased with the increase in concentration"}, {"measurement": "concentration at which differentiation-inducing effect is exerted (Tuj1, TH mRNA)", "setting": "[8]; 4 days", "value": 1, "unit": "nM"}, {"measurement": "number of NeuN stained neurons, hippocampal subiculum", "setting": "[9]", "value": "significant increase in the number of neurons"}, {"measurement": "number of NeuN stained neurons, motor cortex layer 5", "setting": "[9]", "value": "significant increase in the number of neurons"}, {"measurement": "immature neurons stained by DCX in dentate gyrus", "setting": "[10]", "value": "seen to be present"}, {"measurement": "number of cells with Type 2 or Type 3 morphology in dentate gyrus (Nissl and NeuN staining)", "setting": "[10]", "value": "increased considerably"}, {"measurement": "protein level of pERK in the brain", "setting": "[11]", "value": "considerably lower"}, {"measurement": "IC50", "setting": "[12]", "value": "0.92 to 3.4", "unit": "nM"}, {"measurement": "differentiation of NSC into neurons (morphology)", "setting": "[13]", "value": "readily induced the differentiation of NSC into neurons"}, {"measurement": "number of cells stained with BrdU in the dentate gyrus", "setting": "[14]", "value": "an increase in the number of cells stained with BrdU"}]}]}
